In patent US8987502B2, “Oleanolic acid amidate derivatives, preparation methods and uses thereof” (Hangzhou Bensheng Pharmaceutical Co., Ltd., priority 2011, dated 2015):
Values after ≈ are worked out from the molar mass of the structure shown.

Experiments:
U87 MG = experiment: MTT solid tumor cell proliferation inhibition, U87 MG; type: cell-based, human; details: Homo sapiens, U-87 MG, U87 MG, 72 h
Method: (§1) Human solid tumor cell lines: Hep-2 (laryngeal carcinoma), A549 (human lung cancer), CaES-17 (esophageal cancer cell), PC-3 (prostate cancer), CNE (nasopharyngeal carcinoma cell), and SK-OV-3 (ovarian cancer cell), all of which are purchased from China Center For Type Culture Collection; RKO (human colon adenocarcinoma cell), MGC 803 (human gastric cancer cell), MG63 (osteosarcoma) and U87 MG (malignant glioma cell), all of which are purchased from Fuxiang Bio-tech Co. Ltd., Shanghai, China; PANC-1 (pancreatic cancer), Hep G2 (human liver cancer cell), Becap37 (human breast cancer cell), and Hela (human cervical cancer cell), all of which are donated by Cancer Research Institute of Zhejiang University, China.
(§2) Obtaining 4000 well-growing human solid tumor cells and inoculating them into wells of a 96-well cell culture plate. The culture medium is DMEM High Glucose cell culture medium containing 10% fetal bovine serum. The plate is placed in a carbon dioxide cell incubator (5% CO2) at 37° C. for 24 hours for incubation. After being added with the amidated oleanolic acid derivatives of different concentrations and mixed uniformly, the plate is placed in a carbon dioxide cell incubator (5% CO2) at 37° C. for 72 hours for incubation. Then the relative number of the living cells is determined by the MTT method. In this experiment, the cell proliferation inhibition rate in control group (not treated with any compound) is set as 0%.

NB4 = experiment: MTT leukemia cell proliferation inhibition, NB4; type: cell-based; details: Homo sapiens, NB-4
Description: (§3) Leukemia cell lines: leukemia cell lines: K562/adr (drug-resistant, chronic myeloid leukemia, CML), NB4 (acute promyelocytic leukemia, AML), Kasumi-1 (acute myeloid leukemia M2 type, AML-M2), Jurkat (acute lymphoblastic leukemia, ALL), all of which are donated by Cancer Research Institute of Zhejiang University, China; and H9 (acute lymphoblastic leukemia, ALL), which is purchased from China Center for Type Culture Collection (CCTCC).
(§4) Reagents: The standard sample of oleanolic acid (OA) is purchased from Hua Kang Pharmaceutical Raw Material Factory, Shifang City, Sichuan, China; and the amidated oleanolic acid derivatives are prepared according to the present invention.
(§5) Obtaining 6000 well-growing leukemia cells and inoculating them into wells of a 96-well cell culture plate. The culture medium is the 1640 cell culture medium containing 10% fetal bovine serum. After adding the amidated oleanolic acid derivatives of different concentrations and mixing uniformly, placing the plate in a carbon dioxide cell incubator (5% CO2) at 37° C. and incubated for 72 hours. Then the relative number of viable cells is determined by the MTT method. In this experiment, the cell proliferation inhibition rate in control group (not treated with any compound) is set as 0%.

CNE = experiment: MTT solid tumor cell proliferation inhibition, CNE; type: cell-based, human; details: Homo sapiens, CNE, 72 h
Method: as §1, §2

CaES-17 = experiment: MTT solid tumor cell proliferation inhibition, CaES-17; type: cell-based, human; details: Homo sapiens, CaEs17
Method: as §1, §2

Hela = experiment: MTT solid tumor cell proliferation inhibition, Hela; type: cell-based, human; details: Homo sapiens, Hela, 72 h
Method: as §1, §2

MGC803 = experiment: MTT solid tumor cell proliferation inhibition, MGC803; type: cell-based, human; details: Homo sapiens, MGC-803
Method: as §1, §2

H9 = experiment: MTT leukemia cell proliferation inhibition, H9; type: cell-based, human
Description: as §3, §4, §5

Hep-2 = experiment: MTT solid tumor cell proliferation inhibition, Hep-2; type: cell-based, human; details: Homo sapiens
Method: as §1, §2

Kasumi-1 = experiment: MTT leukemia cell proliferation inhibition, Kasumi-1; type: cell-based; details: Homo sapiens
Description: as §3, §4, §5

RPMI8226 = experiment: MTT multiple myeloma cell proliferation inhibition, RPMI8226; type: cell-based; details: Homo sapiens, RPMI-8226
Method: Multiple myeloma cell lines: RPMI8226 (multiple myeloma), purchased from Fuxiang Bio-tech Co. Ltd., Shanghai, China.
as §5

Hep G2 = experiment: MTT solid tumor cell proliferation inhibition, Hep G2; type: cell-based; details: Homo sapiens, HepG2
Method: as §1, §2

SK-OV-3 = experiment: MTT solid tumor cell proliferation inhibition, SK-OV-3; type: cell-based, human; details: Homo sapiens
Method: as §1, §2

A549 = experiment: MTT solid tumor cell proliferation inhibition, A549; type: cell-based, human; details: Homo sapiens
Method: as §1, §2

MG 63 = experiment: MTT solid tumor cell proliferation inhibition, MG 63; type: cell-based, human
Method: as §1, §2

K562/adr = experiment: MTT leukemia cell proliferation inhibition, K562/adr; type: cell-based; details: Homo sapiens, 72 h
Description: as §3, §4, §5

Jurkat = experiment: MTT leukemia cell proliferation inhibition, Jurkat; type: cell-based; details: Homo sapiens, 72 h
Description: as §3, §4, §5

Becap37 = experiment: MTT solid tumor cell proliferation inhibition, Becap37; type: cell-based; details: Homo sapiens
Method: as §1, §2

RKO = experiment: MTT solid tumor cell proliferation inhibition, RKO; type: cell-based; details: Homo sapiens, 72 h
Method: as §1, §2

PANC-1 = experiment: MTT solid tumor cell proliferation inhibition, PANC-1; type: cell-based, human; details: Homo sapiens
Method: as §1, §2

PC-3 = experiment: MTT solid tumor cell proliferation inhibition, PC-3; type: cell-based, human
Method: as §1, §2

[1] = 16 μg/mL compound, read-out: IR (inhibition rate)

- IC50 (U87 MG; MTT): > 16 µg/mL
- IC50 (NB4; NB4, 72 h, MTT): 6.51 µg/mL (≈ 13.1 µM)
- IC50 (CNE; MTT): > 16 µg/mL
- IC50 (CaES-17; CaES-17, 72 h, MTT): 18.9 µg/mL (≈ 38.1 µM)
- IC50 (Hela; MTT): 11.9 µg/mL (≈ 24 µM)
- IC50 (MGC803; MGC803, 72 h, MTT): 14.4 µg/mL (≈ 29 µM)
- IC50 (H9; Homo sapiens, H9, 72 h, MTT): 6.3 µg/mL (≈ 12.7 µM)
- IC50 (Hep-2; Hep-2, 72 h, MTT): > 16 µg/mL
- IC50 (Kasumi-1; Kasumi-1, 72 h, MTT): > 16 µg/mL
- IC50 (RPMI8226; RPMI8226, 72 h, MTT): 3.51 µg/mL (≈ 7.08 µM)
- IC50 (Hep G2; Hep G2, 72 h, MTT): > 16 µg/mL
- IC50 (SK-OV-3; SK-OV-3, 72 h, MTT): 7.63 µg/mL (≈ 15.4 µM)
- IC50 (A549; A549, 72 h, MTT): > 16 µg/mL
- IC50 (MG 63; Homo sapiens, MG 63, 72 h, MTT): 13.2 µg/mL (≈ 26.5 µM)
- IC50 (K562/adr; MTT): 2.4 µg/mL (≈ 4.84 µM)
- IC50 (Jurkat; MTT): 14.3 µg/mL (≈ 28.9 µM)
- IC50 (Becap37; Becap37, 72 h, MTT): > 16 µg/mL
- IC50 (RKO; MTT): > 16 µg/mL
- IC50 (PANC-1; PANC-1, 72 h, MTT): > 16 µg/mL
- IC50 (PC-3; Homo sapiens, PC-3, 72 h, MTT): 13.1 µg/mL (≈ 26.3 µM)
Structure (SMILES): CC1(C)CC[C@]2(NC(=O)C3CC3)CC[C@]3(C)C(=CC[C@@H]4[C@@]5(C)CC[C@H](O)C(C)(C)[C@@H]5CC[C@]43C)[C@@H]2C1 [BS-OA-097]
- inhibition at 16 µg/mL (U87 MG; [1]): 37.4%
- inhibition at 16 µg/mL (NB4; NB4, 16 μg/mL compound, 72 h, read-out: IR (inhibition rate)): 93.4%
- inhibition at 16 µg/mL (CNE; [1]): 40%
- inhibition at 16 µg/mL (CaES-17; CaES-17, 16 μg/mL compound, 72 h, read-out: IR (inhibition rate)): 45.7%
- inhibition at 16 µg/mL (Hela; [1]): 64.4%
- inhibition at 16 µg/mL (MGC803; MGC803, 16 μg/mL compound, 72 h, read-out: IR (inhibition rate)): 56.1%
- improvement of cell inhibition rate as compared with oleanolic acid (H9; H9 cells): ~4 fold
- inhibition at 16 µg/mL (H9; Homo sapiens, H9, 16 μg/mL compound, 72 h, read-out: IR (inhibition rate)): 85.3%
- inhibition at 16 µg/mL (Hep-2; Hep-2, 16 μg/mL compound, 72 h, read-out: IR (inhibition rate)): 28.5%
- inhibition at 16 µg/mL (Kasumi-1; Kasumi-1, 16 μg/mL compound, 72 h, read-out: IR (inhibition rate)): 42.9%
- inhibition at 16 µg/mL (RPMI8226; RPMI8226, 16 μg/mL compound, 72 h, read-out: IR (inhibition rate)): 95.3%
- inhibition at 16 µg/mL (Hep G2; Hep G2, 16 μg/mL compound, 72 h, read-out: IR (inhibition rate)): 35.1%
- inhibition at 16 µg/mL (SK-OV-3; SK-OV-3, 16 μg/mL compound, 72 h, read-out: IR (inhibition rate)): 68.9%
- inhibition at 16 µg/mL (A549; A549, 16 μg/mL compound, 72 h, read-out: IR (inhibition rate)): 38.1%
- IR (inhibition rate) (MG 63; MG 63, 16 μg/mL compound, 72 h): 78.6%
- inhibition at 16 µg/mL (K562/adr; [1]): 91.3%
- inhibition at 16 µg/mL (Jurkat; [1]): 56.6%
- inhibition at 16 µg/mL (Becap37; Becap37, 16 μg/mL compound, 72 h, read-out: IR (inhibition rate)): 41.3%
- inhibition at 16 µg/mL (RKO; [1]): 29%
- inhibition at 16 µg/mL (PANC-1; PANC-1, 16 μg/mL compound, 72 h, read-out: IR (inhibition rate)): 38.8%
- inhibition at 16 µg/mL (PC-3; Homo sapiens, PC-3, 16 μg/mL compound, 72 h, read-out: IR (inhibition rate)): 56.6%
- improvement of cell inhibition rate as compared with oleanolic acid (PC-3; PC-3 cells): ~2 fold
